Laboratory results: patent US6365053B1, “Removal of H2S in drilling mud” (Statoil Asa, priority 1998, dated 2002)

What was measured:
[1] = H2S absorption by iron oxalate in oil based mud (interdrill 1.62), GGT analysis (Example 2); conditions: 400 mg iron oxalate in 15 ml interdrill 1.62 oil based mud, water phase pH 12.5, 1.5 ml solution D
Description: In A, B and C iron oxalate was added.
The jar containing the mixture was then shaken. From this mixture a new sample of 1 ml mud was taken out with a syringe. This new sample consisting of 1 ml mud was mixed with 20 ml of water and further analysed in GGT (Garret Gas Train) whereby the mixture was stirred with a magnetic stirrer.
The mud which was used in example 2 was of the type interdrill 1.62 (density of the mud), wherein the pH value in the water phase is 12.5.

[2] = H2S absorption by iron oxalate at low concentrations of H2S, GGT analysis (Example 3); conditions: low H2S concentration, 200 mg iron oxalate in 15 ml mud, 1.5 ml solution D
Description: Measurements at low concentrations of H2S were also carried out.
From this mixture a new sample of 1 ml mud was taken out with a syringe and mixed with 20 ml of water and analysed in GGT (Garret Gas Train) whereby the mixture was stirred with a magnetic stirrer.

O=C([O-])C(=O)[O-].[Fe+2] [iron oxalate, iron(II) oxalate]
Amount of remaining H2S in the mud sample measured by GGT analysis ([1]; ageing 17 hours): 51 ppm
Amount of remaining H2S in the mud sample measured by GGT analysis ([1]; ageing 40 hours): 34 ppm
Amount of remaining H2S in the mud sample measured by GGT analysis ([1]; ageing 64 hours): 57 ppm
Amount of remaining H2S in the mud sample measured by GGT analysis ([2]; ageing 1 hour): 8.5 ppm
Amount of remaining H2S in the mud sample measured by GGT analysis ([2]; ageing 18 hours): 0 ppm
Amount of remaining H2S in the mud sample measured by GGT analysis ([2]; ageing 25 hours): 0 ppm
